Experimental data as given in the METLIN SMRT retention time set (Domingo-Almenara et al. 2019).

Test: gradient 5% acetonitrile 3 min, to 50% in 2 min, to 85% in 15 min, held 3 min, 100 µL/min
Settings: column: Zorbax Extend-C18 2.1 x 50 mm; eluents: water / acetonitrile, 0.1% formic acid
How it was run: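 Data were gathered over 3 months by HPLC coupled to a quadrupole time-of-flight mass spectrometer, operated in positive and negative ionization mode. Mixtures of ~100 pure standards ran on a Zorbax Extend-C18 column (2.1 × 50 mm, 1.8 μm) at 100 μL/min, with water and acetonitrile each containing 0.1% formic acid and dead and dwell volumes of 40 μL and 900 μL. Retention time was read from adduct peaks picked by computer and checked manually.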

SMILES	RP-LC retention time [s]
CCn1cc(CCNS(=O)(=O)c2cccc(F)c2)c2cccnc21	774
Cc1noc(-c2cccn2Cc2ccc(Cl)cc2)n1	1090
CNC(=O)C1CCN(Cc2noc(-c3ccc(F)cc3)n2)CC1	581
CCC(=O)N1CCc2cc(N3CC(C(=O)Nc4cccc(F)c4)CC3=O)ccc21 (stereo not given)	763
O=S(=O)(Cc1ccccc1)N1CCC(Cc2nncn2-c2ccccc2)C1 (stereo not given)	729
O=C(CN1c2ccc(F)cc2-c2ccccc2S1(=O)=O)NCCCN1CCOCC1	625
CC(C)CCNC(=O)C1(C)CCc2ccccc2C(=O)N1CCc1c[nH]c2ccccc12 (stereo not given)	950
Cc1ccc(Cn2cc(C(=O)O)c(S(=O)(=O)N3CCSCC3)n2)cc1	861
CC(C)N1CCN(S(=O)(=O)c2ccc(-c3nnc(C4CCC4)o3)o2)CC1	637
Cc1ccc(C)c(CN2CCC(CNC(=O)c3c(C)oc4c3C3=NCCN3C=N4)CC2)c1	561
Cc1ccc(C(=O)Nc2ccc(-c3nc(Cn4cccn4)c(C)o3)cc2)s1	890
CCn1cc(C2=CCN(C(=O)Cc3ccc(F)cc3)CC2)c2cccnc21	876
O=C1CCC2(CNC(=O)NCCc3ccccc3)CCCC=C2N1 (stereo not given)	623
Cc1ccsc1C(=O)N1CC(Oc2ccc(-c3nc(-c4ccccc4)no3)cc2)C1	1250
Cc1noc(-c2ccnc(SCC(=O)Nc3cccc(C(F)(F)F)c3)c2)n1	933
Cc1cccc(OCc2nc(C)c(C(=O)Nc3nc(-c4ccc(C)c(C)c4)cs3)s2)c1	1410
COc1ccc(-c2cn3c(CC(=O)Nc4cc(F)ccc4F)csc3n2)cc1OC	744
Cc1cccc(N2CCN(C(=O)C3CCN(S(=O)(=O)c4cn(C(C)C)cn4)CC3)CC2)c1C	929
CN(C)[C@@H]1CN(Cc2cccc(C#N)c2)C[C@H]1CO	518
CS(=O)(=O)N1CCC(OC2CCN(C(=O)Nc3c(F)cccc3F)CC2)CC1	688
CCS(=O)(=O)Nc1ccc(C2(C(=O)NCc3cccc(Cl)c3)CCC2)cc1	876
CCOC(=O)N1CCN(c2ncc(S(=O)(=O)c3ccc(C)c(C)c3)c(N)n2)CC1	891
Nc1cc(C2CCN(C(=O)Nc3cc(F)c(F)c(F)c3)CC2)no1	765

SMILES	RP-LC retention time [s]
c1ccc2c(c1)CC(N1CCN(c3cccc4c3OCCO4)CC1)C2	741
CCc1noc(-c2ccc(SCC(=O)N3CCCCC3C)nc2)n1 (stereo not given)	1200
Cc1ccccc1Nc1c(-c2cccc(Cl)c2)nc2c(C)cccn12	802
O=C(NCC1CCCO1)C1COC2(CCN(C(=O)c3ccccc3F)CC2)N1C(=O)c1ccccc1 (stereo not given)	673
Cc1csc(-c2cc(S(=O)(=O)Nc3ccc(F)c(F)c3)cn2CC(=O)N2CCCC2)n1	927
Cc1ccsc1C(=O)Nc1ccc(-c2nc(-c3ccccc3)co2)cc1	1160
COC(=O)c1ccccc1NC(=O)CCCn1c(=O)c2cccn2c2ccc(Br)cc21	1120
CCc1cccc(NC(=O)N2CCc3cn(CCOC)c4cccc(c34)C2)c1	1030
Cc1noc(C)c1S(=O)(=O)N1CC(N(C)Cc2cccnc2)C1	594
Cc1ccc(Sc2nccnc2N2CCCC(C(=O)Nc3ccc(F)cc3C)C2)cc1 (stereo not given)	1140
Cc1ccc(-n2ncc3c(=O)n(Cc4nc(-c5ccc(OC(C)C)cc5)no4)cnc32)cc1	1200
COC(=O)c1c(NCC(C)O)c2cc(F)ccc2[nH]c1=O (stereo not given)	596
CCc1nc2cc(N3CCC(C(=O)NCCN4CCCCC4C)CC3)cnc2nc1CC (stereo not given)	605
Cc1ccc(-c2cc(C(=O)NC3CCC(C)CC3)c(C)[nH]2)cc1 (stereo not given)	1050
Cc1nc(-c2ccncc2)nc2c1CCC(=O)N2CCCN(C)C	549
O=C(Nc1ccc2c(c1)OCCO2)C1(CCO)CCN(c2ncccn2)C1 (stereo not given)	606
CCN(CCNC(=O)CCc1cc2cc(OC)ccc2[nH]c1=O)Cc1ccccc1	626
O=C(c1ccc(S(=O)(=O)c2cccc(Cl)c2)c([N+](=O)[O-])c1)N1CCN(c2ccccn2)CC1	722
COc1ccccc1-c1noc(C2CCCN2C(=O)Nc2ccccc2)n1 (stereo not given)	848
CN(C)c1ccc(C(=O)NC2CCN(c3cc(-c4ccc(Cl)cc4)[nH]n3)C2)cc1 (stereo not given)	790
Cc1cccc(-c2noc(CCn3nc(-c4ccc5c(c4)OCO5)ccc3=O)n2)c1	976
O=S(=O)(c1ccc(-c2noc(-c3ccccc3Cl)n2)cc1)N1CCOCC1	1100
CCn1c(=O)c(C(=O)NCCCOC(C)C)nc2cccnc21	728

SMILES	RP-LC retention time [s]
CCc1nc(-n2cccc2)sc1C(=O)Nc1ccc(C)cc1	949
COc1cccc(OC)c1C(=O)N1CCCC1c1cc(C(C)C)on1 (stereo not given)	794
COCCN1C(=O)[C@H]2CN(Cc3ccc(Cl)c(F)c3)C[C@H]2C1=O	638
COc1ccc2c(=O)cc(-c3cccnc3)oc2c1OC	763
CCn1c(=O)c(N2CCCC(C(=O)NCCCN3CCOCC3)C2)nc2cccnc21 (stereo not given)	621
CNC(=O)N1CC(c2nc(-c3ccccc3)no2)C2(CCOCC2)C1 (stereo not given)	679
CCCCC(=O)Nc1cc(C(=O)O)ccc1N(C)CC1COCCO1 (stereo not given)	756
N#CCc1cnc2ccccc2n1	720
CN(C)C(=O)CN1CCN(c2cc(C(=O)O)c3cc(NC(=O)c4ccccc4F)ccc3n2)CC1	580
Cc1cc(N2CCN(C(=O)C3CCC3)CC2)nc2nncn12	566
O=C(Nc1cccc(Br)c1)N1CCC(n2cnc3cccnc32)CC1	660
CCCNC(=O)C1CCCN(c2ccc(SCC(=O)Nc3ccccc3Br)nn2)C1 (stereo not given)	670
CC(C)CN1CCN(C(=O)CN2CCN(Cc3ccc(F)cc3)C2=O)CC1	602
CCn1cc(CCNS(=O)(=O)c2ccc(C)cc2)c2cccnc21	786
O=C(NCc1cc(-c2ccccc2F)on1)c1ccccc1Br	810
Cc1cc(C(=O)NCc2ccsc2)no1	700
OCC1CN(c2ncccn2)CC12CCN(Cc1c[nH]c3ccccc13)CC2 (stereo not given)	579
O=C(c1[nH]nc2c1CCc1ccccc1-2)N1CCC(c2noc(-c3ccncc3)n2)C1 (stereo not given)	755
COc1cccc(-c2csc(Nc3ccc(Br)cn3)n2)c1	1170
O=C1/C(=C/c2ccc([N+](=O)[O-])cc2)CCc2ccccc21	1160
CC(C)CCNS(=O)(=O)c1ccc(-c2nc(C(C)C)cs2)s1	1260
Cc1nnc(-c2nnc(NC3CCCCCC3)c3ccccc23)o1	766
COc1ccc(S(=O)(=O)N2CCN(CCc3cn(C)c4ncccc34)CC2)cc1	609

SMILES	RP-LC retention time [s]
CCc1noc(NC(C)=O)c1-c1ccc(OC)c(S(=O)(=O)N2CCN(c3ccccn3)CC2)c1	614
CCN(CC)S(=O)(=O)c1ccc2c(c1)CC(C(=O)N1CCN(C3CCCCC3)CC1)N2C(C)=O (stereo not given)	666
Cc1cnc(-c2ccncc2)n1C1CCCN(S(=O)(=O)c2cn(C)cn2)C1 (stereo not given)	557
Nc1cccc(C(=O)CC2(O)C(=O)Nc3ccc(Cl)cc32)c1 (stereo not given)	627
CCc1noc(NC(C)=O)c1-c1ccc(C)c(S(=O)(=O)Nc2cc(Cl)c(OC)cc2OC)c1	859
CCN1c2cc(C(=O)NCc3cccs3)ccc2C(=O)N2CCCCC21 (stereo not given)	822
CCNC(=O)CC1=C2CCCCC2N(C)C1=O (stereo not given)	607
Cn1c(=O)n(C)c2cc(CNc3cc(C(=O)O)ccc3Cl)ccc21	738
CCOC(=O)c1c(C)oc2ncnc(NC3CCCc4ccccc43)c12 (stereo not given)	1310
CC(C)NC(=O)N1CCC(c2nc(C(C)C)cs2)CC1	766
COC(=O)c1ccc2c(=O)n(-c3ccc4c(c3)OCO4)c(N3CCN(c4ccccc4)CC3)nc2c1	1110
Nc1ccc(C(=O)c2ccccc2)cc1[N+](=O)[O-]	783
CC(C)c1nnc(-c2ccc(S(=O)(=O)N3CCN(C4CCCCC4)CC3)o2)o1	644
Cc1cc2[nH]c(C(=O)Nc3ccccc3F)c(CN(C)C)c2s1	654
COc1ccc(C(=O)Nc2nc3c(s2)CCc2cc(OC)ccc2-3)cc1	1080
CC1=C(c2ccc(C)cc2)S(=O)(=O)N=C1N1CCCN(C(=O)c2cccc(F)c2)CC1	859
Cc1cccc(NC(=O)C2CCN(S(=O)(=O)c3cc(C(=O)N4CCOCC4)cs3)CC2)c1C	760
Cc1cc(C(=O)Nc2ccc(Br)cc2F)n(-c2ccccc2)n1	1010
CCc1nnc(-c2ccc(=O)n(CC(=O)N3CCC4(CC3)OCCO4)c2)o1	594
Cc1ccc(-n2c(=O)n(C)c(=O)c3cc(C(=O)Nc4ccc5c(c4)OCO5)cnc32)cc1	907
CCc1csc(-c2ccc(N3CCN(C(=O)c4ccc(F)cc4F)CC3)nc2)n1	890
